Source: ChEMBL document CHEMBL5113462, “Synthesis and evaluation of inhibitors of Mycobacterium tuberculosis UGM using bioisosteric replacement” (Bioorg Med Chem, 2022)

system: Mycobacterium tuberculosis variant bovis; experiment: Antimycobacterial activity against Mycobacterium tuberculosis variant bovis BCG for 7 days by resazurin-based microdilution assay; format: functional; conditions: 168 h, time 7 day

Structure (SMILES)	MIC
O=C(/C=C/c1ccccc1)N[C@@H](Cc1ccc(Br)cc1)C(=O)O	1070 µM
O=C(/C=C/c1ccccc1)N[C@@H](Cc1ccc(Cl)cc1)C(=O)O	606 µM
CC[C@@H](CO)NCCN[C@@H](CC)CO [ETHAMBUTOL]	4.9 µM
O=C(/C=C/c1ccccc1)N[C@@H](Cc1ccc(I)cc1)C(=O)O	237 µM
O=C(/C=C/c1ccccc1)N[C@@H](Cc1ccc([N+](=O)[O-])cc1)C(=O)O	1270 µM
O=C(/C=C/c1ccccc1)N[C@@H](Cc1ccccc1)C(=O)O	> 400 µg/mL
